Data taken from US20210122730A1, “GLUCOCORTICOID RECEPTOR MODULATORS” (ORIC Pharmaceuticals, Inc., priority 2017, published 2021).

Columns and labels:
CYP2C8 = target: T1, CYP2C8 (Homo sapiens, UniProt P10632); assay: CYP Inhibition Assay (CYP2C8, human liver microsomes, paclitaxel substrate); format: in vitro ADME; settings: pH 7.4; pooled human liver microsomes 0.1 mg/mL, probe substrate paclitaxel
T1 construct: Pooled human microsomes were obtained from Sekisui XenoTech, KS; tissue Sekisui XenoTech, KS; host or cells: pooled human liver microsomes
T1 sequence (P10632 1-490): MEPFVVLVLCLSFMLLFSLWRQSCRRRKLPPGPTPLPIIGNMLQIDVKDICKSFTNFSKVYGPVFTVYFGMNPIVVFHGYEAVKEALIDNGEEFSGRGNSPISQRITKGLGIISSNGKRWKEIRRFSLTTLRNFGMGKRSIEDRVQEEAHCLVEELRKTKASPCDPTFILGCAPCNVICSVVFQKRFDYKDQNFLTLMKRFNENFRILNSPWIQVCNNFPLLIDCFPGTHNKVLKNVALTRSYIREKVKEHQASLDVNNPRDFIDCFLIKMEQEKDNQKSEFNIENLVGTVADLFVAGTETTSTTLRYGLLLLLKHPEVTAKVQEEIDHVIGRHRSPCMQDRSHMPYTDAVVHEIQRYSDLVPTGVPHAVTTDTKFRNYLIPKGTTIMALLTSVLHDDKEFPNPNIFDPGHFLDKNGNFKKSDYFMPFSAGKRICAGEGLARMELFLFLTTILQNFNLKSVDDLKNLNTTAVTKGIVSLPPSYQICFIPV
Method: Example B: CYP Inhibition Assay
Objective: To assess the % inhibition of test compounds against CYP2C8 enzyme in human liver microsomes.
Pooled human microsomes were obtained from Sekisui XenoTech, KS, and were used for in vitro assessment of compound inhibitory potential of the major drug metabolizing human CYP enzymes.
Test compounds were dissolved in DMSO as 10 mM stock solutions and diluted to 200 µM in acetonitrile as working solutions. The total concentrations of DMSO and acetonitrile were 0.02% and 0.5%, respectively, in the assay.
The assay was performed in duplicate in a 96-well plate. The reaction mixture ([…]) containing a final concentration of 0.1 mg/mL pooled human liver microsomes, 50 mM potassium phosphate, pH 7.4 buffer, was re-warmed at 37° C. for 5 minutes. The reaction was initiated with NADPH solution which was at 1 mM final concentration, and carried out for 5 minutes at 37° C. It was terminated by the addition of 3-fold volume of quench solution (1:1 acetonitrile:methanol with 0.1% formic acid and the internal standard of tolbutamide). The sample was vortexed, centrifuged at 4,000 rpm for 15 min at 4° C. The incubation in the presence of vehicle (0.02% DMSO and 0.5% acetonitrile) was used as the enzyme activity control. The analyses of metabolite 6α-hydroxypaclitaxel in supernatant was performed with LC-MS/MS method (Sciex API 4500 Qtrap coupled to a Shimadzu LC-20AD HPLC).
The CYP enzyme activity was determined based on the formation of 6a-hydroxypaclitaxel metabolite. The % inhibition was calculated using this equation: % Inhibition=100×(1−Ainactivator/Avehicle), where Ainactivator is the CYP enzyme activity in the presence of test compound, and Avehicle is the CYP activity in the presence of vehicle.

GR = target: T2, GR (Homo sapiens, UniProt P04150); assay: In Vitro GR Luciferase Reporter Assay (antagonist mode, CHO-K1-GR-MMTV-Luc reporter cells); format: cell-based
T2 construct: expressed in transfected cells; host or cells: CHO-K1
T2 sequence (P04150 1-777): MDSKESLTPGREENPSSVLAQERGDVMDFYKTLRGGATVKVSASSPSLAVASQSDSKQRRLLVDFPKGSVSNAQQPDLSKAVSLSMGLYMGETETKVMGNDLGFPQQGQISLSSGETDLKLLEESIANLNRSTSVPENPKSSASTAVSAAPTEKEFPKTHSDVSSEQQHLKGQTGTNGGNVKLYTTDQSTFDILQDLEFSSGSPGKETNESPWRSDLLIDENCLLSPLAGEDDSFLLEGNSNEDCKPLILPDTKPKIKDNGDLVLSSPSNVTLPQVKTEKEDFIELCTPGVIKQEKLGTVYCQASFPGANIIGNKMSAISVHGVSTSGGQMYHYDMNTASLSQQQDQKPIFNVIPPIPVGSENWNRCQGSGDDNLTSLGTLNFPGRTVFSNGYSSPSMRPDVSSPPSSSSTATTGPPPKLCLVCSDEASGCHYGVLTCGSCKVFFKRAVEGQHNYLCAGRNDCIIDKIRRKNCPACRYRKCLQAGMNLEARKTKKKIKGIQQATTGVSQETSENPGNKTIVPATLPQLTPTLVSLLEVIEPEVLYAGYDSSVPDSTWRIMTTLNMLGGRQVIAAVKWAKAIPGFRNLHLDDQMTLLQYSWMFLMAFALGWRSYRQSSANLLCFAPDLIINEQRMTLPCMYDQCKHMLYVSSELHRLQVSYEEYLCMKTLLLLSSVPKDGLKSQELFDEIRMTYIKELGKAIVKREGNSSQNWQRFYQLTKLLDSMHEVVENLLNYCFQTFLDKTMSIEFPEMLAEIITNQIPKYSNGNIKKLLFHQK
Procedure, shortened: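 Antagonist mode: compounds (8 serial 1:5 dilutions) added to GR-MMTV-luciferase CHO-K1 reporter cells co-exposed to 10 nM dexamethasone final, in phenol red-free DMEM plus 10% CSS. After roughly 18-24 h at 37° C, OneGlo luminescence read and IC50 calculated.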

[1] = antagonist mode, 10 nM Dexamethasone
[2] = antagonist assay with 10 nM Dexamethasone, 18-24 hours

Row | SMILES | inhibition at 5 min (CYP2C8) [%] | IC50 (GR; [1]) [nM] | IC50 (GR; [2]) [nM]
1 | CN(C(=O)[C@H]1CCC2=Cc3c(cnn3-c3ccc(F)cc3)C[C@]2(C(=O)c2cc(C(F)(F)F)ccn2)C1)c1cnn(C)c1 (single isomer, unassigned) [Example 122] | ≤ 25 | ≤ 100 | –
2 | CN([C@H]1CCC2=Cc3c(cnn3-c3ccc(F)cc3)C[C@]2(C(=O)c2ccccn2)C1)S(=O)(=O)c1ccc(Cl)cc1 [Example 4, 4-Chloro-N-((4aS,6S)-1-(4-fluorophenyl)-4a-picolinoyl-4,4a,5,6,7,8-hexahydro-1H-benzo[f]indazol-6-yl)-N-methylbenzenesulfonamide] | 50 to 75 | – | ≤ 100
3 | CCn1ncc(S(=O)(=O)[C@H]2CCC3=Cc4c(cnn4-c4ccc(F)cc4)C[C@]3(C(=O)c3cc(C(F)(F)F)ccn3)C2)n1 [Example 52, ((4aS,6S)-6-((2-ethyl-2H-1,2,3-triazol-4-yl)sulfonyl)-1-(4-fluorophenyl)-1,4,5,6,7,8-hexahydro-4aH-benzo[f]indazol-4a-yl)(4-(trifluoromethyl)pyridin-2-yl)methanone] | 75 to 90 | – | ≤ 100
4 | O=C(c1ccc(C(F)(F)F)cn1)[C@]12Cc3cnn(-c4ccc(F)cc4)c3C=C1CC[C@H](S(=O)(=O)c1ccc(F)cc1)C2 [Example 55, ((4aS,6S)-1-(4-fluorophenyl)-6-((4-fluorophenyl)sulfonyl)-1,4,5,6,7,8-hexahydro-4aH-benzo[f]indazol-4a-yl)(5-(trifluoromethyl)pyridin-2-yl)methanone] | ≤ 25 | – | ≤ 100
5 | CC(C)n1ncc(S(=O)(=O)[C@H]2CCC3=Cc4c(cnn4-c4ccc(F)cc4)C[C@]3(C(=O)c3cc(C(F)(F)F)ccn3)C2)n1 [Example 56, ((4aS,6S)-1-(4-fluorophenyl)-6-((2-isopropyl-2H-1,2,3-triazol-4-yl)sulfonyl)-1,4,5,6,7,8-hexahydro-4aH-benzo[f]indazol-4a-yl)(4-(trifluoromethyl)pyridin-2-yl)methanone] | 75 to 90 | – | ≤ 100
6 | Cn1cc(S(=O)(=O)[C@H]2CCC3=Cc4c(cnn4-c4ccc(F)cc4)C[C@]3(C(=O)c3ccc(C(F)(F)F)cn3)C2)cn1 [Example 69, ((4aS,6S)-1-(4-fluorophenyl)-6-((1-methyl-1H-pyrazol-4-yl)sulfonyl)-1,4,5,6,7,8-hexahydro-4aH-benzo[f]indazol-4a-yl)(5-(trifluoromethyl)pyridin-2-yl)methanone] | ≤ 25 | – | ≤ 100
7 | CN([C@H]1CCC2=Cc3c(cnn3-c3ccc(F)cc3)C[C@]2(C(=O)c2cc(C(F)(F)F)ccn2)C1)S(=O)(=O)c1cnn(C)c1 [Example 81, N-((4aS,6S)-1-(4-fluorophenyl)-4a-(4-(trifluoromethyl)picolinoyl)-4,4a,5,6,7,8-hexahydro-1H-benzo[f]indazol-6-yl)-N,1-dimethyl-1H-pyrazole-4-sulfonamide] | 25 to 50 | – | ≤ 100
8 | CN([C@H]1CCC2=Cc3c(cnn3-c3ccc(F)cc3)C[C@]2(C(=O)c2cc(C(F)(F)F)ccn2)C1)S(=O)(=O)c1cnn(C)n1 [Example 90, N-((4aS,6S)-1-(4-fluorophenyl)-4a-(4-(trifluoromethyl)picolinoyl)-4,4a,5,6,7,8-hexahydro-1H-benzo[f]indazol-6-yl)-N,2-dimethyl-2H-1,2,3-triazole-4-sulfonamide] | 50 to 75 | – | ≤ 100
9 | CCN([C@H]1CCC2=Cc3c(cnn3-c3ccc(F)cc3)C[C@]2(C(=O)c2cc(C(F)(F)F)ccn2)C1)S(=O)(=O)c1cnn(C)c1 [Example 91, N-ethyl-N-((4aS,6S)-1-(4-fluorophenyl)-4a-(4-(trifluoromethyl)picolinoyl)-4,4a,5,6,7,8-hexahydro-1H-benzo[f]indazol-6-yl)-1-methyl-1H-pyrazole-4-sulfonamide] | 50 to 75 | – | ≤ 100
10 | CN([C@H]1CCC2=Cc3c(cnn3-c3ccc(F)cc3)C[C@]2(C(=O)c2ccc(C3CC3)cn2)C1)S(=O)(=O)c1cnn(C)c1 [Example 93, N-((4aS,6S)-4a-(5-cyclopropylpicolinoyl)-1-(4-fluorophenyl)-4,4a,5,6,7,8-hexahydro-1H-benzo[f]indazol-6-yl)-N,1-dimethyl-1H-pyrazole-4-sulfonamide] | 75 to 90 | – | ≤ 100
11 | CN([C@H]1CCC2=Cc3c(cnn3-c3ccc(F)cc3)C[C@]2(C(=O)c2cc(C(F)(F)F)ccn2)C1)S(=O)(=O)C1CCOCC1 [Example 94, N-((4aS,6S)-1-(4-fluorophenyl)-4a-(4-(trifluoromethyl)picolinoyl)-4,4a,5,6,7,8-hexahydro-1H-benzo[f]indazol-6-yl)-N-methyltetrahydro-2H-pyran-4-sulfonamide] | 50 to 75 | – | ≤ 100
12 | CN([C@H]1CCC2=Cc3c(cnn3-c3ccc(F)cc3)C[C@]2(C(=O)c2cc(C(F)(F)F)ccn2)C1)S(=O)(=O)c1ccc(Cl)cc1 [Example 99, 4-chloro-N-((4aS,6S)-1-(4-fluorophenyl)-4a-(4-(trifluoromethyl)picolinoyl)-4,4a,5,6,7,8-hexahydro-1H-benzo[f]indazol-6-yl)-N-methylbenzenesulfonamide] | 25 to 50 | – | ≤ 100
13 | Cn1cnc(S(=O)(=O)N(CCF)[C@H]2CCC3=Cc4c(cnn4-c4ccc(F)cc4)C[C@]3(C(=O)c3ncc(C(F)(F)F)s3)C2)n1 [Example 112, N-(2-Fluoroethyl)-N-((4aS,6S)-1-(4-fluorophenyl)-4a-(5-(trifluoromethyl)thiazole-2-carbonyl)-4,4a,5,6,7,8-hexahydro-1H-benzo[f]indazol-6-yl)-1-methyl-1H-1,2,4-triazole-3-sulfonamide] | 75 to 90 | – | –
14 | Cn1cnc(S(=O)(=O)N(CC2CC2)[C@H]2CCC3=Cc4c(cnn4-c4ccc(F)cc4)C[C@]3(C(=O)c3cc(Cl)ccn3)C2)n1 [Example 410, N-((4aS,6S)-4a-(4-chloropicolinoyl)-1-(4-fluorophenyl)-4,4a,5,6,7,8-hexahydro-1H-benzo[f]indazol-6-yl)-N-(cyclopropylmethyl)-1-methyl-1H-1,2,4-triazole-3-sulfonamide] | – | ≤ 100 | –
15 | Cn1cc(S(=O)(=O)N(C2CC(F)(F)C2)[C@H]2CCC3=Cc4c(cnn4-c4ccc(F)cc4)C[C@]3(C(=O)c3cc(C(F)(F)F)ccn3)C2)cn1 [Example 411, N-(3,3-difluorocyclobutyl)-N-((4aS,6S)-1-(4-fluorophenyl)-4a-(4-(trifluoromethyl)picolinoyl)-4,4a,5,6,7,8-hexahydro-1H-benzo[f]indazol-6-yl)-1-methyl-1H-pyrazole-4-sulfonamide] | – | ≤ 100 | –
